The values that follow come from US4477456A (priority 1982, dated 1984).

Test [1] has as its system characteristic stretching or writhing syndrome induced by phenylquinone. Nature of the test: animal or person. It counts as in vivo, female white mice. The conditions noted are these: for ED50: Mus musculus, po, 0.5 h, read-out: Effect ED50, Oral PQW.
The test system of test [2] is Straub tail induced by morphine. The conditions noted are these: known narcotic antagonists, Blumberg et al.; cited from earlier work.
Test [3] shares this test system. Nature of the test: narcotic antagonist test: prevention of Straub tail induced by morphine sulfate. Type of test: in vivo, Female CF1 S mice. The conditions noted are these: for ED50: Mus musculus, sc, subcutaneous, challenge 30 mg/kg morphine sulfate i.p., read-out: Effect ED50, Subcutaneous Anti-Straub Tail.
The test system of test [4] is anorexigenic effect (milk spots consumed). Nature of the test: animal or person. It counts as in vivo, Female CF1 mice. The conditions noted are these: Mus musculus, po, read-out: Anorexigenic Effect, Effective Dose.

For `CC(C)(C)C(C)(O)C1CC2CCC13CN(CC1CC1)CCC31c3cccc(O)c3OC21` (single isomer, unassigned) [Example 11, 3-Cyclopropylmethyl-5-(2-hydroxy-3,3-dimethyl-2-butyl)-1,2,3,4,5,6,7,7a-octahydro-4a,7-ethanobenzofuro[3,2-e]isoquinolin-9-ol], the ED50 in test [1] was 5.2 mg/kg.

As to `C=CCN1CC[C@]23c4c5ccc(O)c4O[C@H]2[C@@H](O)C=C[C@H]3[C@H]1C5` [Nalorphine], in test [2], the “prevention of the induction of Straub tail by morphine” value is recorded as “prevent the induction of Straub tail in mice”.

On to `CN1CCC23c4cccc(O)c4OC2C2CCC3(CC2)C1` (stereo not shown) [Example 2, 3-methyl-1,2,3,4,5,6,7,7a-octahydro-4a,7-ethanobenzofuro[3,2-e]isoquinolin-9-ol], for which the ED50 in test [1] amounted to 12 mg/kg; in test [3] it was 0.05 mg/kg. Further, the minimal effective dose in test [4] was more than 324 mg/kg.

For the compound `CC(C)=CCN1CCC2(C)c3cc(O)ccc3CC1C2C` (stereo not shown) [Pentazocine, reference compound], the 50% effective dose (ED50) in test [1] worked out at 56 mg/kg; in test [3] it was 4 mg/kg.

In the case of `CN1CC[C@]23c4c5ccc(O)c4O[C@H]2[C@@H](O)C=C[C@H]3[C@H]1C5` [Morphine, reference compound], the ED50 in test [1] is 3 mg/kg.

As for `CC(O)C1CC2C=CC13CN(CC1CC1)CCC31c3cccc(O)c3OC21` (stereo not shown) [Example 8, 3-Cyclopropylmethyl-5-(1-hydroxyethyl)-1,2,3,4,5,6,7,7a-octahydro-4a,7-ethenobenzofuro[3,2-e]isoquinolin-9-ol], the median effective dose (ED50) was found to be 0.51 mg/kg in test [1] and 0.024 mg/kg in test [3].

For the compound `C=CCN1CC[C@]23c4c5ccc(O)c4O[C@H]2C(=O)CC[C@@]3(O)[C@H]1C5` [Naloxone, reference compound], the minimal effective dose in test [4] was 4.8 mg/kg. Further, the “prevention of the induction of Straub tail by morphine” value in test [2] was “prevent the induction of Straub tail in mice”.

For the compound `COc1cccc2c1OC1C3CCC4(CC3)CN(C)CCC214` (stereo not shown) [Example 1, 9-methoxy-3-methyl-1,2,3,4,5,6,7,7a-octahydro-4a,7-ethanobenzofuro[3,2-e]isoquinoline], the ED50 in test [1] was 20.5 mg/kg; in test [3], more than 18 mg/kg. Also, in test [4], the minimal effective dose was 20 mg/kg.

`CCCN1CCC23c4cccc(OC)c4OC2C2CCC3(CC2)C1` (stereo not shown) [Example 3, 9-Methoxy-3-propyl-1,2,3,4,5,6,7,7a-octahydro-4a,7-ethanobenzofuro[3,2-e]isoquinoline]: the results for the ED50 in test [1] and in test [3] were more than 135 mg/kg and 0.19 mg/kg, respectively.

For `CCCN1CCC23c4cccc(O)c4OC2C2CCC3(CC2)C1.Cl` (stereo not shown) [Example 4, 3-propyl-1,2,3,4,5,6,7,7a-octahydro-4a,7-ethanobenzofuro[3,2-e]isoquinolin-9-ol hydrochloride], the ED50 was found to be 99 mg/kg in test [1] and 0.009 mg/kg in test [3]. Further, in test [3] (Straub tail antagonism, in words), the “narcotic antagonism capability / antagonist character” value was “pure narcotic antagonists”. Besides, the minimal effective dose in test [4] turned out to be 7 mg/kg.

In the case of `CC(O)C1CC2CCC13CN(CC1CC1)CCC31c3cccc(O)c3OC21` (stereo not shown) [Example 7, 3-Cyclopropylmethyl-5-(1-hydroxyethyl)-1,2,3,4,5,6,7,7a-octahydro-4a,7-ethanobenzofuro[3,2-e]isoquinolin-9-ol], the ED50 in test [1] was determined as 0.78 mg/kg; in test [3], 0.08 mg/kg.

With `OCC1CC2CCC13CN(CC1CC1)CCC31c3cccc(O)c3OC21` (single isomer, unassigned) [Example 9, 3-cyclopropylmethyl-5-hydroxymethyl-1,2,3,4,5,6,7,7a-octahydro-4a,7-ethanobenzofuro[3,2-e]isoquinolin-9-ol], in test [1], the ED50 was 0.28 mg/kg. Besides, the “analgesic potency compared with morphine” value in test [1] (mouse, in vivo) was “several times greater potency than morphine”.

Consider `Oc1cccc2c1OC1C3CCC4(CC3)CN(CC3CC3)CCC214` (stereo not shown) [Example 6, 3-Cyclopropylmethyl-1,2,3,4,5,6,7,7a-octahydro-4a,7-ethanobenzofuro[3,2-e]isoquinolin-9-ol], for which the ED50 in test [1] amounted to 4.4 mg/kg; in test [3], 0.005 mg/kg. In addition, the minimal effective dose in test [4] was determined as 46 mg/kg.
